In patent publication US7422846B2, “Natural ligand for orphan G protein coupled receptor GPR86 and methods of use” (Euroscreen S.A, priority 2001, dated 2008):

Biological target: T1, GPR86 (P2Y13) human receptor (Homo sapiens, UniProt Q9BPV8, T179M)
T1 sequence (Q9BPV8 22-354 T179M): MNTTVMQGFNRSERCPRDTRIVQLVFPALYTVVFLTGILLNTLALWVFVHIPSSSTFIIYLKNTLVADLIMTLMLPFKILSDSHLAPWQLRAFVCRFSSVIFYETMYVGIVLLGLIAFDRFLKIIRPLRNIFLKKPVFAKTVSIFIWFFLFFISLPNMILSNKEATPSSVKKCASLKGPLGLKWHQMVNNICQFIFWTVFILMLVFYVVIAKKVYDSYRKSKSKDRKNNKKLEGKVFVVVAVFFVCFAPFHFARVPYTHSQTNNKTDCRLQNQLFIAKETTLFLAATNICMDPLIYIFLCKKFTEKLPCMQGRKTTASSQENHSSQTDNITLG
Test: IP3 accumulation in 1321N1 cells (AG32) expressing GPR86 (P2Y13) together with Gα16
Format: cell-based
Design: expressed in transfected cells; host or cells: 1321N1 astrocytoma clone AG32 (stably expressing Gα16 from pERAEQ2), G418-selected
Conditions: for EC50: 1321N1 cells expressing GPR86 and Gα16, 30 s, mean±S.D. of three independent experiments, read-out: EC50, IP3 accumulation
Method: Cells of the invention, for example, 1321N1 cells, are labelled for 24 hours with 10 μCi/ml [^3H] inositol in inositol free DMEM containing 5% FCS, antibiotics, amphotericin, sodium pyruvate and 400 μg/ml G418. Cells are incubated for 2 h in Krebs-Ringer Hepes (KRH) buffer of the following composition (124 mM NaCl, 5 mM KCl, 1.25 mM MgSO4, 1.45 mM CaCl2, 1.25 mM KH2PO4, 25 mM Hepes (pH: 7.4) and 8 mM glucose). The cells are then challenged with various nucleotides for 30 s. The incubation is stopped by the addition of an ice cold 3% perchloric acid solution. IP are extracted and separated on Dowex columns as previously described (25). 2MeSATP and ATP solutions (1 mM) are treated at room temperature with 20 units/ml CPK and 10 Mm cp for 90 min to circumvent problems arising from the contamination and degradation of triphosphate nucleotide solutions.
CHO-K1 and 1321N1 cells were transfected with the recombinant GPR86-pEFIN5 plasmid or with the plasmid alone using the FuGENE™6 transfection reagent (Roche Molecular Biochemicals). A clone called AG32 corresponding to 1321N1 cells previously transfected with pERAEQ2 plasmid encoding Gα16 (provided by Euroscreen), was transfected. The CHO-K1 and 1321N1 transfected cells were selected with 400 μg/ml G418 in complete medium (10% FBS, 100 units/ml penicillin, 100 μg/ml streptomycin and 2.5 μg/ml amphotericin B in respectively Ham's F12 or DMEM (Dulbecco's modified Eagle's) medium) two days after transfection and maintained in the same medium. The AG32 cells were maintained in the same DMEM complete medium supplemented with 500 μg/ml zeocin.
The pool of G418-resistant clones was tested for its functional IP3 response to several nucleotides, according to the method described above. The cells were challenged by various nucleotides at a concentration of 100 μM for 30 s: ATP, ADP, UTP, UDP, ITP, IDP, TDP.
Concentration-action curves for ADP, 2MeSADP and ADPβS. […] 1321N1 transfected cells were incubated in the presence of various concentrations of ADP, 2MeSADP and ADPβS for 30 s. The data represent the mean±S.D. of triplicate experimental points obtained in one representative experiment of three.
AG32 cells were seeded (200,000 cells per dish) on 35 mm (diameter) Petri dishes and labeled for 24 h with 5 μCi/ml [3H]-myoinositol in inositol free DMEM containing 5% fetal calf serum, antibiotics, amphotericin, sodium pyruvate, and 400 μg/ml of G418. Cells were incubated for 2 h in Krebs-Ringer Hepes (KRH) buffer (124 mM NaCl, 5 mM KCl, 1.25 mM MgSO4, 1.45 mM CaCl2, 1.25 mM KH2PO4, 25 mM Hepes (pH 7.4) and 8 mM D-glucose). The cells were then incubated in presence of ADP, ATP or 2MeSATP for 30 s. The incubation was stopped by the addition of 1 ml of an ice-cold 3% perchloric acid solution. Prior to the stimulation, ATP and 2MeSATP (1 mM solutions) were incubated for 90 min at room temperature with 20 units/ml creatine phosphokinase (CPK) and 10 mM creatine phosphate (CP). The reaction was stopped by addition of 10 mM iodoacetamide.
AG32 cells were seeded (200,000 cells per dish) on 35 mm (diameter) Petri dishes and labeled for 24 h with 5 μCi/ml [^3H]-myoinositol in inositol free DMEM containing 5% fetal calf serum, antibiotics, amphotericin, sodium pyruvate, and 400 μg/ml of G418. Cells were incubated for 2 h in Krebs-Ringer Hepes (KRH) buffer (124 mM NaCl, 5 mM KCl, 1.25 mM MgSO4, 1.45 mM CaCl2, 1.25 mM KH2PO4, 25 mM Hepes (pH 7.4) and 8 mM D-glucose). The cells were then incubated in presence of two different concentrations (100 nM and 10 μM) of ADP or ApnA (n=3-6) for 30 s. The incubation was stopped by the addition of 1 ml of an ice-cold 3% perchloric acid solution.
AG32 cells were seeded (200,000 cells per dish) on 35 mm (diameter) Petri dishes and labeled for 24 h with 5 μCi/ml [^3H]-myoinositol in inositol free DMEM containing 5% fetal calf serum, antibiotics, amphotericin, sodium pyruvate, and 400 μg/ml of G418.

Row | Structure (SMILES) | EC50 [nM] | IP3 response to nucleotides (100 μM for 30 s, pool of G418-resistant clones expressing GPR86 and Gα16)
1 | CSc1nc(N)c2ncn([C@@H]3O[C@H](COP(=O)(O)OP(=O)(O)O)[C@@H](O)[C@H]3O)c2n1 [2MeSADP, 2-methylthio-ADP] | 14.2 ± 3 | –
2 | Nc1ncnc2c1ncn2[C@@H]1O[C@H](COP(=O)(O)OP(=O)(O)O)[C@@H](O)[C@H]1O [ADP] | 11.4 ± 2.2 | induced an IP3 response
